Measured values reported in patent publication US7858635B2 (priority 2005, dated 2010).
Like-named read-outs stand apart in the source and are kept apart here.

How the values were obtained:
M1 muscarinic receptor = molecular target: T1, M1 muscarinic receptor (Homo sapiens, UniProt P11229); test: Functional mobilization of intracellular calcium (FLIPR, Fluo-3), M1-CHO cells; type: cell-based; details: for Emax: 100% efficacy is the maximum response obtained with the Carbachol control, read-out: M1 Efficacy
T1 construct: expressed in transfected cells; host or cells: CHO cells (M1-CHO, under zeocin and G418 selection)
T1 sequence (P11229 1-460): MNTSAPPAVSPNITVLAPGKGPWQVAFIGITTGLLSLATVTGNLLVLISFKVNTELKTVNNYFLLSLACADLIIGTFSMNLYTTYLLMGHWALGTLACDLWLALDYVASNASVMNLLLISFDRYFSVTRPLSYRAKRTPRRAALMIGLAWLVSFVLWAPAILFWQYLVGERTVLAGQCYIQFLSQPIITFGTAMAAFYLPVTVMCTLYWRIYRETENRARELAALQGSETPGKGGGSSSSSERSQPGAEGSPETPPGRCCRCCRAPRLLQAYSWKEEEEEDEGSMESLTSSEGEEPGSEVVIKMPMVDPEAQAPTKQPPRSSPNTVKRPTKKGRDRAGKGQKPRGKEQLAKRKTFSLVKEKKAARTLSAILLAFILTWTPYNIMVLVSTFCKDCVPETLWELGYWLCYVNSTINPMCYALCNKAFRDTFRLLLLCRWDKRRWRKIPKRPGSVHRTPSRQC
Method in brief: (§1)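 Fluo-3 read-out, ex 488/em 540 nm, 60 sec on FLIPR 3. For agonist mode, compound added directly; for inhibition, 15 min compound pre-incubation before carbachol at EC80 (added as a 3× solution), or co-application. Buffer pH 7.4 with 1 mM probenecid; DMSO 0.5%.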

M4 muscarinic receptor = molecular target: T2, M4 muscarinic receptor (Homo sapiens, UniProt P08173); test: Functional mobilization of intracellular calcium (FLIPR, Fluo-3), M4-CHO cells; type: cell-based; details: for Emax: 100% efficacy is the maximum response obtained with the Carbachol control, read-out: M4 Efficacy
T2 construct: expressed in transfected cells; host or cells: CHO cells (M4-CHO, under puromycin, zeocin and blasticidin selection)
T2 sequence (P08173 1-479): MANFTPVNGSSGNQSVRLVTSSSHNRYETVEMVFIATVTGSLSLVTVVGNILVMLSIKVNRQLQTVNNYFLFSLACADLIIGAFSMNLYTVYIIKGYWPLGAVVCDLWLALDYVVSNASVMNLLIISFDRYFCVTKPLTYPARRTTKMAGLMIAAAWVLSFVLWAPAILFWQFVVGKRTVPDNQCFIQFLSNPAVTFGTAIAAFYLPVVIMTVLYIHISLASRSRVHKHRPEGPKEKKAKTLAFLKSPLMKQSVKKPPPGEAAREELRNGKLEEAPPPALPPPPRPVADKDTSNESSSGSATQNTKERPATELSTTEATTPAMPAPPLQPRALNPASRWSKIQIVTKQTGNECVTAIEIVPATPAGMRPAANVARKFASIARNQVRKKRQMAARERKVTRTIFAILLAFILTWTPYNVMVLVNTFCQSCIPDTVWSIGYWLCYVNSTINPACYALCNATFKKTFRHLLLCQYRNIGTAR
Method in brief: as §1

[1] = compound nos. 1-454, M1-CHO cells, calcium mobilization
[2] = compound nos. 1-454, M4-CHO cells, calcium mobilization

Compound	Emax (M1 muscarinic receptor; compound nos. 1-454)	M1 Activity (M1 muscarinic receptor; [1])	Emax (M4 muscarinic receptor; compound nos. 1-454)	M4 Activity (M4 muscarinic receptor; [2])	M1 Activity (M1 muscarinic receptor; compound nos. 1-454)	M4 Activity (M4 muscarinic receptor; compound nos. 1-454)	Emax (M1 muscarinic receptor; compound nos. 455-509)	M1 Activity (M1 muscarinic receptor; compounds 455-509)	Emax (M4 muscarinic receptor; compound nos. 455-509)	M4 Activity (M4 muscarinic receptor; compounds 455-509)
CC(C)OC(=O)N1C2CCC1CC(N1CCC3(CC1)CN(C(=O)OC1CCC1)c1ccc(F)cc13)C2 (stereo not drawn) [compound 166]	> 85%	+++ (activity was measured to be less than or equal to 0.7 μM)	> 70%	+ (activity was measured to be greater than or equal to 4.0 μM)	–	–	–	–	–	–
CC(=O)N1CC2(CCN(C3CCN(C(=O)O[C@H]4CCOC4)CC3)CC2)c2cc(F)ccc21 [compound 418]	< 65%	–	< 55%	–	+ (activity was measured to be greater than or equal to 3.0 μM)	+ (activity was measured to be greater than or equal to 4.0 μM)	–	–	–	–
CCOC(=O)N1CCC(N2CCC3(CC2)CN(C(C)=O)c2ccc(-c4cccc(C#N)c4)cc23)CC1 [compound 373]	65 to 85%	+++ (activity was measured to be less than or equal to 0.7 μM)	> 70%	++ (activity was measured to be between 0.1 μM and 4.0 μM)	–	–	–	–	–	–
CC(=O)N[C@@H]1CC2(CCN([C@@H]3C[C@@H]4CC[C@@H]3C4)CC2)c2ccccc21 [compound 323]	65 to 85%	++ (activity was measured to be between 0.7 μM and 3.0 μM)	55 to 70%	+ (activity was measured to be greater than or equal to 4.0 μM)	–	–	–	–	–	–
COC(=O)N1CCC(N2CCC3(CC2)CN(C(=O)N(C)C)c2ccc(F)cc23)CC1 [compound 154]	65 to 85%	+++ (activity was measured to be less than or equal to 0.7 μM)	> 70%	+++ (activity was measured to be less than or equal to 0.1 μM)	–	–	–	–	–	–
CCOC(=O)N1CCC(N2CCC3(CC2)CN(C(C)=O)c2ccc(-c4ccccc4C)cc23)CC1 [compound 78]	65 to 85%	+++ (activity was measured to be less than or equal to 0.7 μM)	< 55%	++ (activity was measured to be between 0.1 μM and 4.0 μM)	–	–	–	–	–	–
CCCOC(=O)N1CCC(N2CCC3(CC2)CN(C(C)=O)c2ccc(F)cc23)CC1 [compound 79]	< 65%	++ (activity was measured to be between 0.7 μM and 3.0 μM)	< 55%	+ (activity was measured to be greater than or equal to 4.0 μM)	–	–	–	–	–	–
Clc1ccc2c(c1)C1(CCN(C3CCC4CCC3C4)CC1)CN2 (stereo not drawn) [compound 348]	> 85%	+++ (activity was measured to be less than or equal to 0.7 μM)	> 70%	++ (activity was measured to be between 0.1 μM and 4.0 μM)	–	–	–	–	–	–
CC(=O)N1CC2(CCN(C3CCN(c4nccs4)CC3)CC2)c2cc(F)ccc21 [compound 432]	65 to 85%	–	55 to 70%	–	+++ (activity was measured to be less than or equal to 0.7 μM)	+++ (activity was measured to be less than or equal to 0.1 μM)	–	–	–	–
COC(=O)N1C2CCC1CC(N1CCC3(CC1)CN(C(=O)c1cc(C)n(C)n1)c1ccc(F)cc13)C2 (stereo not drawn) [compound 44]	65 to 85%	+++ (activity was measured to be less than or equal to 0.7 μM)	> 70%	++ (activity was measured to be between 0.1 μM and 4.0 μM)	–	–	–	–	–	–
Cc1ncc(N2CCC(N3CCC4(CCN(C(=O)N(C)C)c5ccccc54)CC3)CC2)nc1C [compound 461]	–	–	–	–	–	–	> 100%	++ (activity was measured to be between 2.0 μM and 5.0 μM)	25 to 100%	++ (activity was measured to be between 2.0 μM and 5.0 μM)
Cc1csc(N2CCC(N3CCC4(CC3)CN(C(=O)N(C)C)c3ccccc34)CC2)n1 [compound 499]	–	–	–	–	–	–	> 100%	+ (activity was measured to be greater than or equal to 5.0 μM)	25 to 100%	++ (activity was measured to be between 2.0 μM and 5.0 μM)
CCOC(=O)N1C2CCC1CC(N1CCC3(CC1)CN(C(C)=O)c1ccccc13)C2 (stereo not drawn) [compound 205]	< 65%	+ (activity was measured to be greater than or equal to 3.0 μM)	< 55%	+ (activity was measured to be greater than or equal to 4.0 μM)	–	–	–	–	–	–
C=Cc1ccc2c(c1)C1(CCN(C3CCN(C(=O)OCC)CC3)CC1)CN2C(C)=O [compound 11]	< 65%	+ (activity was measured to be greater than or equal to 3.0 μM)	< 55%	+ (activity was measured to be greater than or equal to 4.0 μM)	–	–	–	–	–	–
CCOC(=O)N1C2CCC1CC(N1CCC3(CC1)CN(C(C)=O)c1ccc(C)cc13)C2 (stereo not drawn) [compound 9]	65 to 85%	+++ (activity was measured to be less than or equal to 0.7 μM)	55 to 70%	+ (activity was measured to be greater than or equal to 4.0 μM)	–	–	–	–	–	–
Fc1ccc2c(c1)C1(CCN(CC3CC4C=CC3C4)CC1)CN2 (stereo not drawn) [compound 183]	65 to 85%	++ (activity was measured to be between 0.7 μM and 3.0 μM)	55 to 70%	+ (activity was measured to be greater than or equal to 4.0 μM)	–	–	–	–	–	–
CCOC(=O)N1C2CCC1CC(N1CCC3(CC1)CN(C(=O)c1cc(C)nn1C(C)(C)C)c1ccc(F)cc13)C2 (stereo not drawn) [compound 189]	65 to 85%	+++ (activity was measured to be less than or equal to 0.7 μM)	55 to 70%	+ (activity was measured to be greater than or equal to 4.0 μM)	–	–	–	–	–	–
CCOC(=O)N1CCC(N2CCC3(CC2)CN(C(C)=O)c2ccc(-c4cccc(C)c4)cc23)CC1 [compound 6]	65 to 85%	+++ (activity was measured to be less than or equal to 0.7 μM)	55 to 70%	++ (activity was measured to be between 0.1 μM and 4.0 μM)	–	–	–	–	–	–
CCCc1ccc2c(c1)C1(CCN(C3CCN(C(=O)OCC)CC3)CC1)CN2C(C)=O [compound 74]	65 to 85%	+++ (activity was measured to be less than or equal to 0.7 μM)	55 to 70%	++ (activity was measured to be between 0.1 μM and 4.0 μM)	–	–	–	–	–	–
Cc1csc(N2CCC(N3CCC4(CCN(C(=O)N(C)C)c5ccccc54)CC3)CC2)n1 [compound 508]	–	–	–	–	–	–	25 to 100%	++ (activity was measured to be between 2.0 μM and 5.0 μM)	25 to 100%	++ (activity was measured to be between 2.0 μM and 5.0 μM)
O=C(C1CCC1)N1CC2(CCN(C3CC4CCC(C3)N4C(=O)O[C@@H]3CCOC3)CC2)c2cc(F)ccc21 (stereo partly drawn) [compound 69]	< 65%	++ (activity was measured to be between 0.7 μM and 3.0 μM)	< 55%	++ (activity was measured to be between 0.1 μM and 4.0 μM)	–	–	–	–	–	–
